Test: Purity and stability test: content of impurities by HPLC after sealed storage at 25° C. for 7 days
Type: physicochemical
Details: for Content of impurities after stored at 25° C. for 7 days: sealed storage; for Content of impurities after stored at 25° C. for 7 days / Initial content of impurities: HPLC; for Initial content of impurities: before storage (baseline of the stability test)
Description: In the following examples, high performance liquid chromatography (HPLC) method (European Pharmacopoeia) used for detecting the purity of the crystal of arboprost tromethamine obtained are listed as follows:
Stationary phase: silica gel, particle size 5-μm
Mobile phase: acetonitrile:aqueous Sodium Dihydrogen Phosphate (pH=2.5)=23:77 (V/V)
Column temperature: 35° C.
Detection wavelength: 200 nm
In the present example, the samples from the comparative-example and examples were test for purity and stability. The method for testing is described as follows:
The samples from comparative-example 1, example 2 and example 4 were obtained and kept at 25° C. for 7 days in sealed storage. And then the content of impurities in each sample was tested.

Structure (SMILES)	Content of impurities after stored at 25° C. for 7 days [%]	Initial content of impurities [%]	stability after storage (in words) (after stored for a long time, conclusion from the table)
CCCCC[C@](C)(O)/C=C/[C@@H]1[C@@H](C/C=C\CCCC(=O)O)[C@@H](O)C[C@H]1O [Example 2, carboprost tromethamine]	0.3	0.3	–
CCCCC[C@](C)(O)/C=C/[C@@H]1[C@@H](C/C=C\CCCC(=O)O)[C@@H](O)C[C@H]1O [Example 4, carboprost tromethamine]	0.2	0.2	–
CCCCC[C@](C)(O)/C=C/[C@@H]1[C@@H](C/C=C\CCCC(=O)O)[C@@H](O)C[C@H]1O [compound 1, carboprost tromethamine]	4.0	0.5	–
CCCCC[C@](C)(O)/C=C/[C@@H]1[C@@H](C/C=C\CCCC(=O)O)[C@@H](O)C[C@H]1O [crystal of carboprost tromethamine, 2-amino-2-(hydroxymethyl)propan-1,3-diol(5Z)-7-[(1R,2R,3R,5S)-3,5-dihydroxy-2-[(1E,3S)-3-hydroxy-3-methyl-1-octene]cyclopentyl]-5-heptylic acid]	–	–	excellent stability

— US20130190404A1, “CRYSTALS OF CARBOPROST TROMETHAMINE AND THE PREPARATION METHOD AS WELL AS THE USES THEREOF” (SHANGHAI TECHWELL BIOPHARMACEUTICAL CO., LTD., priority 2010, published 2013)
